Laboratory results published in patent EP1171107B1, “USE OF A PHARMACEUTICAL COMPOSITION IN THE MANUFACTURE OF A MEDICAMENT FOR THE TREATMENT OF PATHOLOGICAL CONDITIONS OF THE EYE CAUSED BY BACTERIA, VIRUSES, FUNGI, YEASTS AND PROTOZOA” (Dr. GERHARD MANN chem.-pharm. Fabrik GmbH, priority 1999, dated 2000).
Where a name gives a salt, the structure may show the parent alone.

Columns and labels:
[1] = system: H.influenzae; experiment: Qualitative examination: enrichment of the inoculated test preparation in broth; assay type: cell-based
Outline: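 Strains from lyophilisate, subcultured on Caso or cooked-blood agar, identity checked biochemically. Each substance spiked at ca. 10^5 CFU/ml; one separate tube per time point (2, 6, 8, 24, 32, 48, 72 h). Washed twice by centrifugation, then enriched in broth at 33±2°C, max 4 days.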

[2] = system: Alle Testkeime; experiment: Overall assessment: time until all test germs are eliminated (count and enrichment); assay type: cell-based; conditions: time after inoculation; all six test germs
Procedure: Escherichia (E.coli) Staphylococcus (S.aureus) Streptococcus (Sc.) Pneumoniae Pseudomonas (P.aeruginosa) Staphylococcus (S. epidermidis) Haemophilus (H. influenzae)
Die verschiedenen Testsubstanzen a. bis j. wurden jeweils zu 5 ml in sterile Zentrifugenröhrchen abgefüllt und mit ca. 10^5 KBE^*/ml (* = koloniebildende Einheiten) der oben genannten Testkeime kontaminiert. Pro Substanz wurde für jeden Testkeim und jede zu prüfende Testzeit ein separater Ansatz angeimpft, d.h.10 Testsubstanzen zu jeweils 7 Testzeiten und 6 Testkeime (= insgesamt 502 Testansätze). Nach 2, 6, 8, 24, 32, 48 und 72 Stunden wurde dann der jeweilige Testansatz 10 Minuten bei 3000 rpm abzentrifugiert. Der Überstand wurde dekantiert und das Pellet in 5 ml NaCl Peptonpuffer aufgenommen und resuspendiert. Die Suspension wurde erneut 10 Minuten bei 3000 rpm abzentrifugiert und 5 ml NaCl-Peptonpuffer aufgenommen und mittels Vortex homogenisiert.
Die anschließende Keimzahlbestimmung erfolgte im Oberflächenverfahren durch Ausspiralisieren eines 10011 Aliquots auf Caso-Agar bzw. für H. influenzae auf Kochblut-Agar. Die Platten wurden bei 33±2°C für max. 4 Tage bebrütet. Die Nachweisgrenze des Verfahrens liegt bei 100 KBE/ml.
Jeweils 2 ml der Testansätze wurden in 20 ml Caso-Bouillon oder für H. influenzae, in Fildes-Medium der Firma Becton Dickinson, ARt. […]

Row | Molecule | Ergebnis der Reisolierung qualitiativ (+/-) nach Anreicherung ([1]; 2 h after inoculation) | Ergebnis der Reisolierung qualitiativ (+/-) nach Anreicherung ([1]; 4 h after inoculation) | Ergebnis der Reisolierung qualitiativ (+/-) nach Anreicherung ([1]; 6 h after inoculation) | Ergebnis der Reisolierung qualitiativ (+/-) nach Anreicherung ([1]; 8 h after inoculation) | Ergebnis der Reisolierung qualitiativ (+/-) nach Anreicherung ([1]; 24 h after inoculation) | Ergebnis der Reisolierung qualitiativ (+/-) nach Anreicherung ([1]; 32 h after inoculation) | Ergebnis der Reisolierung qualitiativ (+/-) nach Anreicherung ([1]; 48 h after inoculation) | Ergebnis der Reisolierung qualitiativ (+/-) nach Anreicherung ([1]; 72 h after inoculation) | Testkeime nach Inokulation der Zubereitung auch qualitativ nicht mehr nachweisbar [2]
1 | CCCCCCCCCCCC[N+](C)(C)Cc1ccccc1 [Benzalkoniumchlorid 0,005 Gew.-%, Benzododeciniumchlorid] | - | - | - | - | - | - | - | - | 
2 | O=C(O)c1cn(C2CC2)c2cc(N3CCNCC3)c(F)cc2c1=O [Ciprofloxacin HCl 0,35 Gew.-%, Ciprofloxacin HCl, reference compound] | - | - | - | - | - | - | - | - | 
3 | CC1COc2c(N3CCN(C)CC3)c(F)cc3c(=O)c(C(=O)O)cn1c23 (stereo not shown) [Ofloxacin 0,3 Gew.-%, Ofloxacin, reference compound] | - | - | - | - | - | - | - | - | 24 Stunden
4 | Benzalkoniumchlorid [Benzalkoniumchlorid 0,001 Gew.-%] | - | - | - | - | - | - | - | - | 
5 | Benzalkoniumchlorid [Benzalkoniumchlorid 0,006 Gew.-%] | - | - | - | - | - | - | - | - | 
6 | Benzalkoniumchlorid [Benzalkoniumchlorid 0,0025 Gew.-%] | - | - | - | - | - | - | - | - | 
